Data taken from patent US20210069143A1, “LOW-ALCOHOL ANTIMICROBIAL COMPOSITION AND USE THEREOF” (Zurex Pharma, Inc., priority 2017, published 2021).

Legend:
[1] = Gamma radiation (25-40 kGy) and 5-month storage stability of composition components in HDPE bottles; type: physicochemical; conditions: for Concentration % Change, T = 0 vs. T = 5 Months / % Change (Unexposed vs. Exposed) / % LC, Exposed / % LC, Unexposed / % IPA, Exposed / % IPA, Unexposed: HDPE bottle
Protocol: An antimicrobial composition comprising isopropyl alcohol, citric acid, methyl paraben, propyl paraben, and methylene blue in HDPE bottles was exposed to 25-40 kGy radiation, and the amount of each component detected in the solution before and after radiation was tested. The testing was repeated after 5 months of storage. The results are presented in Tables 1 and 2, below, wherein “exposed” indicates the samples exposed to gamma radiation and “unexposed” indicates the samples that were not exposed to gamma radiation.

[2] = system: tested microorganisms; assay: Antimicrobial effect of components individually and together at various dilutions; type: cell-based; conditions: against most tested microorganisms
Protocol: The antimicrobial effect of various components of the composition of Example 1 were tested individually and together at various dilutions. The results are presented in FIG. 1A-1I, wherein shaded boxes indicate no significant response (<3 log10 reduction).

[3] = T = 0, exposed to 25-40 kGy gamma radiation
[4] = T = 0, not exposed to gamma radiation
[5] = T = 5 months, exposed to 25-40 kGy gamma radiation
[6] = T = 5 months, not exposed to gamma radiation

Row | Structure (SMILES) | change in amount of component upon gamma radiation ([1]; 25-40 kGy, HDPE bottles) | Concentration % Change, T = 0 vs. T = 5 Months ([1]; Exposed to gamma radiation) [%] | % Change (Unexposed vs. Exposed) ([1]; T = 0) [%] | % LC, Exposed [1, 3] [% LC] | % LC, Unexposed [1, 4] [% LC] | % Change (Unexposed vs. Exposed) ([1]; T = 5 months) [%] | % LC, Exposed [1, 5] [% LC] | % LC, Unexposed [1, 6] [% LC] | Concentration % Change, T = 0 vs. T = 5 Months ([1]; Unexposed) [%] | antimicrobial effect, alone ([2]; 25% v/v strength solution) | % IPA, Exposed [1, 3] [%] | % IPA, Unexposed [1, 4] [%] | % IPA, Exposed [1, 5] [%] | % IPA, Unexposed [1, 6] [%] | antimicrobial effect, alone ([2]; all tested concentrations) | share of component in solution degraded by gamma radiation ([1]; 25-40 kGy, HDPE bottles, accompanied by a color change)
1 | O=C(O)CC(O)(CC(=O)O)C(=O)O [Citric Acid, citric acid] | negligible | −4.0 | 1.1 | 97.4 | 96.3 | 0.4 | 93.5 | 93.1 | −3.3 | – | – | – | – | – | – | –
2 | CC(C)O [IPA, isopropyl alcohol] | negligible | 0.7 | 1.2 | – | – | −0.1 | – | – | 1.6 | little to no effect | 68.6 | 68.1 | 69.1 | 69.2 | – | –
3 | CN(C)c1ccc2nc3ccc(=[N+](C)C)cc-3sc2c1 [Methylene Blue, methylene blue] | – | – | −57.4 | 44.9 | 105.5 | −49.4 | 47.3 | 93.4 | – | – | – | – | – | – | little to no effect | approximately 50%
4 | COC(=O)c1ccc(O)cc1 [Methylparaben, methyl-para-hydroxybenzoate] | – | 0.7 | −0.4 | 74.5 | 74.8 | −0.3 | 75.0 | 75.2 | 0.5 | – | – | – | – | – | – | –
5 | CCCOC(=O)c1ccc(O)cc1 [Propylparaben, propyl-para-hydroxybenzoate] | – | 0.4 | 0 | 74.9 | 74.9 | −0.1 | 75.2 | 75.3 | 0.5 | – | – | – | – | – | – | –
6 | O=C(O)CC(O)(CC(=O)O)C(=O)O [citrate] | – | – | – | – | – | – | – | – | – | – | – | – | – | – | little to no effect | –
